Read-outs that look alike come from different tables or passages of the source.
Tests used:
Assay type in all cases: binding, sheep
[1] = tested on: antibody 1 raised against Immunogen IV; assay: Biochip competitive immunoassay, antibody 1
Protocol: (§1) A semi-automated Evidence Investigator analyser (Randox Laboratories Ltd., Crumlin, UK) was used as the platform for a biochip assay for the detection of phenylpiperazines.
(§2) Immunogens were administered to 16-month old Suffolk sheep on a monthly basis to provide target specific polyclonal antisera. The immunisation mixture was prepared by adding 2 mg of immunogen prepared in PBS at a ratio of 50% Immunogen/PBS with 50% Freund's Complete adjuvant (Sigma, Product Number—F5881) and emulsifying the mixture to prepare the final product for immunisation. On day 0, 1 ml of the mixture described above was administered intramuscularly to adult sheep. Subsequent boosts (a total of 20 boosts) were administered intramuscularly to each sheep every 30 days. Freund's complete adjuvant (Sigma, Product Number—F5881) was used for primary immunizations and Freund's incomplete adjuvant (Sigma product Number—F5506) was used for all subsequent injections. Routine bleeds were taken between boosts to monitor the antibody titre and sensitivity, using hapten B conjugated to Horseradish peroxidase in a competitive ELISA, testing cross reactivity to 1-(3-Chlorophenyl)piperazine. In the case of the combination immunoassay, immunogens II and IV were administered to separate sheep and the resulting antisera were combined in a 1:1 ratio to form the antibody blend (1 ml of antisera from the sheep administered with Immunogen II was combined with 1 ml of antisera from the sheep administered with Immunogen IV). IgG was extracted from antisera and purified as described above, and the purified antibodies were immobilised on a biochip (9 mm×9 mm) (Randox Laboratories Ltd). The assay was based on competition for binding sites of a polyclonal antibody between Hapten B-HRP conjugate (Example 9) and phenylpiperazines and potential cross-reactants. The antibodies were immobilised and stabilised onto the biochip surface as previously described (Fitzgerald et al., 2005). Assay dilutent (155 μL), calibrator/phenylpiperazine or potential cross-reactant (25 μL) followed by Hapten-B conjugate (120 μL) were added to the appropriate biochip. The biochips were then incubated for 30 minutes at 30° C. on a thermoshaker set at 370 rpm. The biochips were then subjected to 2 quick wash cycles using the wash buffer provided, followed by 4×2 minute wash cycles. 250 μL of signal (1:1 luminol+peroxide, v/v) was then added to each biochip, and after 2 minutes the biochip carrier was imaged in the Evidence Investigator analyser.
(§3) Calibration curves were generated using the Biochip-based immunoassay. IC50 values were calculated from the graphs by taking 50% of the signal from the zero calibrator and reading the corresponding value on the x-axis, equivalent to the concentration of unlabelled ligand which reduces specific binding of labelled ligand by 50%. Specificity (measured as percentage cross-reactivity−[IC50 (analyte)/IC50 (cross-reactant)]×100) was also tested against a range of piperazine derivatives and other compounds sharing structural features (see table 1).

[2] = tested on: antibody 2 raised against Immunogen II
Protocol: as §1, §2, §3

[3] = tested on: Combination of antibodies 1 & 2 (antisera combined in a 1:1 ratio)
Protocol: as §1, §2, §3

[4] = Antibody 1, Hapten B-HRP conjugate
[5] = Antibody 1, standardized to 1-(3-chlorophenyl)piperazine monohydrochloride, Hapten B-HRP conjugate
[6] = Antibody 2, Hapten B-HRP conjugate
[7] = Antibody 2, standardized to 1-(3-chlorophenyl)piperazine monohydrochloride, Hapten B-HRP conjugate
[8] = Combination of antibodies 1 & 2, Hapten B-HRP conjugate
[9] = Combination of antibodies 1 & 2, standardized to 1-(3-chlorophenyl)piperazine monohydrochloride, Hapten B-HRP conjugate

| Molecule | IC50 [1, 4] [ng/mL] | Cross-reactivity (%) [1, 5] [%] | IC50 [2, 6] [ng/mL] | Cross-reactivity (%) [2, 7] [%] | IC50 [3, 8] [ng/mL] | Cross-reactivity (%) [3, 9] [%] | Cross-reactivity (%) [1] [%] | IC50 [1] [ng/mL] | Cross-reactivity (%) [2] [%] | IC50 [2] [ng/mL] | Cross-reactivity (%) [3] [%] | IC50 [3] [ng/mL] |
| --- | --- | --- | --- | --- | --- | --- | --- | --- | --- | --- | --- | --- |
| COc1ccccc1N1CCNCC1 [1-(2-Methoxyphenyl)piperazine] | 335.160 | <1 | 8.770 | 34 | 15.553 | 17 | – | – | – | – | – | – |
| Clc1cccc(N2CCNCC2)c1 [1-(3-Chlorophenyl)piperazine (mCPP), 1-(3-chlorophenyl)piperazine] | 0.907 | 100 | 2.554 | 100 | 2.075 | 100 | – | – | – | – | – | – |
| Cc1cccc(N2CCNCC2)c1 [1-(3-Methylphenyl)piperazine (mMPP), 1-(3-Methylphenyl)piperazine] | 0.840 | 129 | 1.697 | 230 | 1.418 | 191 | – | – | – | – | – | – |
| FC(F)(F)c1cccc(N2CCNCC2)c1 [1-(3-Trifluoromethylphenyl)piperazine] | 7.620 | 13 | 4.831 | 61 | 5.958 | 44 | – | – | – | – | – | – |
| Oc1cccc(N2CCNCC2)c1 [1-(3-hydroxyphenyl)piperazine] | – | – | – | – | – | – | 31 | 3.469 | 156 | 2.504 | 95 | 2.848 |
| Fc1ccc(N2CCNCC2)cc1 [1-(4-Fluorophenyl)piperazine] | 1.085 | 54 | 7.646 | 38 | 5.113 | 51 | – | – | – | – | – | – |
| COc1ccc(N2CCNCC2)cc1 [1-(4-Methoxyphenyl)piperazine (pMeOPP), 1-(4-methoxyphenyl)piperazine] | 0.868 | 68 | 19.771 | 20 | 10.226 | 26 | – | – | – | – | – | – |
| Oc1ccc(N2CCNCC2)cc1 [1-(4-hydroxyphenyl)piperazine] | 1.029 | 57 | 28.195 | 10 | 15.032 | 18 | – | – | – | – | – | – |
| CN1CCNC(c2ccccc2)C1 (centres unmarked) [1-Methyl-3-phenylpiperazine] | – | <1 | – | <1 | – | <1 | – | – | – | – | – | – |
| c1ccc(CN2CCNCC2)cc1 [1-benzylpiperazine (BZP), 1-benzylpiperazine] | 232.706 | <1 | – | <1 | – | <1 | – | – | – | – | – | – |
| c1ccc(N2CCNCC2)cc1 [1-phenylpiperazine] | 1.017 | 106 | 2.795 | 140 | 2.163 | 125 | – | – | – | – | – | – |
| Nc1cccc(C(F)(F)F)c1O [3-Amino-2-hydroxybenzotrifluoride] | – | <1 | – | <1 | – | <1 | – | – | – | – | – | – |
| OC1(c2ccc(Cl)cc2)CCNCC1 [4-(4-Chlorophenyl)-4-Hydroxypiperidine] | 218.980 | <1 | – | <1 | – | <1 | – | – | – | – | – | – |
| CCCCCn1cc(C(=O)c2cccc3ccccc23)c2ccccc21 [JWH-018] | – | <1 | – | <1 | – | <1 | – | – | – | – | – | – |
| CCCCCn1cc(C(=O)Cc2ccccc2OC)c2ccccc21 [JWH-250] | – | <1 | – | <1 | – | <1 | – | – | – | – | – | – |
| CCC(C(=O)c1ccc2c(c1)OCO2)N1CCCC1 (centres unmarked) [MDPBP] | – | <1 | – | <1 | – | <1 | – | – | – | – | – | – |
| CNC(C)C(=O)c1ccc(C)cc1 (centres unmarked) [Mephedrone] | – | <1 | – | <1 | – | <1 | – | – | – | – | – | – |
| COc1cc(CCN)cc(OC)c1OC [Mescaline] | – | <1 | – | <1 | – | <1 | – | – | – | – | – | – |
| C1CNCCN1 [Piperazine] | – | – | – | – | – | – | <1 | – | <1 | – | <1 | – |
| COC(=O)[C@@H]1C[C@H](OC(C)=O)C(=O)[C@H]2[C@@]1(C)CC[C@H]1C(=O)O[C@H](c3ccoc3)C[C@]21C [Salvinorin A] | – | <1 | – | <1 | – | <1 | – | – | – | – | – | – |
| O=c1n(CCCN2CCN(c3cccc(Cl)c3)CC2)nc2ccccn12 [Trazadone] | – | <1 | – | <1 | – | – | – | – | – | – | <1 | – |
| (+)-Pseudoephedrine | – | <1 | – | <1 | – | <1 | – | – | – | – | – | – |

— US10253006B2, “Assay for the detection of the phenylpiperazine family” (RANDOX LABORATORIES LIMITED, priority 2012, dated 2019)
